Measurements taken from US20240101535A1, “DIHYDROISOQUINOLINONE DERIVATIVE AND APPLICATION THEREOF” (ETERN BIOPHARMA (SHANGHAI) CO., LTD., priority 2020, published 2024).

Key:
[1] = target: WDR5 protein (22-334aa) with MLL1 polypeptide (3672-3773aa) (Homo sapiens, UniProt P61964); experiment: WDR5-MLL PPI inhibitory activity test (HTRF); format: binding; conditions: His-tagged WDR5 and biotin-tagged MLL1 polypeptide
Description: Test Example 1: WDR5-MLL PPI Inhibitory Activity Test
Effect of the compounds on WDR5 (WD Repeat Domain 5) and MLL1 (mixed-lineage leukemia 1) peptides at molecular level.
The effect of the compound on the interaction of WDR5 protein (22-334aa) with MLL1 polypeptide (3672-3773aa) was detected by HTRF (Homogeneous Time-Resolved Fluorescence) technology. When the N-terminal His-tagged WDR5 recognized by the Anti-6His-Eu cryptate donor interacts with the biotin-tagged MLL1 polypeptide recognized by the streptavidin-APC receptor, the donor and acceptor are pulled close enough to produce fluorescence resonance energy transfer (FRET). […] Therefore, the decrease in FRET signal can reflect the compound's inhibition on the interaction of WDR5 with MLL1 polypeptide.
The compound to be tested was diluted 3-fold with DMSO. […] Then the compound was diluted with reaction buffer (25 mM HEPES pH=7.5, 100 mM NaCl, 0.05% Tween 20) to control the final concentration of DMSO at 0.5%. In a 384-well plate, 1 μL of compound and 3 μL of 42 nM WDR5 protein were added, centrifuged at 1000 rpm for 1 min, incubated at room temperature for 60 min, followed by adding 3 μL of 333 nM MLL1 polypeptide with incubation at room temperature for 10 min, and followed by adding 3 μL of a mixed liquid of Anti-6His-Eu cryptate and streptavidin-APC with centrifugation at 1000 rpm for 1 mi and incubation at room temperature protected from light for 60 min, using a multifunction microplate reader (EnVision®2105) to read the signal. The following controls were set up per plate: control group (1 μL with 5% DMSO reaction buffer, 3 μL of 42 nM WDR5, 3 μL of MLL1 polypeptide, 3 μL of Anti-6His-Eu cryptate and streptavidin-APC). Blank group (1 μL reaction buffer with 5% DMSO, 3 μL reaction buffer, 3 μL MLL1 polypeptide, 3 μL Anti-6His-Eu cryptate and streptavidin-APC). The test data was calculated according to the signal ratio of two beams of fluorescence at different wavelengths: (665 nm signal/620 nm signal)*10000. […] The IC50 value was calculated using XLfit software.

MV4-11 cells = experiment: MV4-11 cell proliferation inhibition experiment (CellTiter-Glo); format: cell-based; conditions: Homo sapiens, 144 h, 6 days, read-out: cell proliferation inhibitory activity
Description: Test Example 2: MV4-11 Cell (ATCC: CRL-9591) Proliferation Inhibition Experiment
ATP in living cells was quantitatively detected by CellTiter-Glo (Promega-G7573) Luminescence Cell Viability Assay Kit to determine the effect of the compounds to be tested on cell proliferation. • Step 1: MV4-11 cells were seeded in 96-well plates (Greiner-655098) at a density of 1,500 cells per well with a volume of 140 μL per well; Cell culture medium components included RPM11640 (Gibco-A10491-01)+10% FBS (Gibco-10099-141C)+1% Penicillin-Streptomycin (5,000 U/mL, Gibco-15070-063). • Step 2: On the day of cell seeding, the cells were treated with the compound to be tested. The compound to be tested was diluted with a 3-fold gradient, and a total of 9 concentration gradients were set. DMSO (Sigma, D2650) with 0.5% final concentration or a DMSO solution containing the compound to be tested was added per well with 2 or 3 replicate wells at each concentration point. The plates were incubated at 37° C. in a 5% CO2 incubator (Thermo Scientific Steri-Cycle 371) for 6 days. • Step 3: The cell viability in the control and treatment groups was detected with CellTiter-Glo Luminescent Cell Viability Assay Kit. 50 μL of CellTiter-Glo was added per well, mixed well, and incubated for 15 min at room temperature protected from light. According to the kit instructions, the chemiluminescence signal was read using a multifunctional microplate reader (EnVision, PerkinElmer).
The inhibition percentage (%) of the compound at each concentration point was calculated by the following formula:
Inhibition Percentage (%)=(1−signal value of the group treated with the compound/signal value of the group treated with DMSO)*100.
The value of cell proliferation semi-inhibitory concentration IC50 was calculated using GraphPad Prism software, and the results are shown in Table 2.

IC50 [1] [nM]	IC50 (MV4-11 cells) [nM]	Structure (SMILES)
< 20	< 50	CCOc1cc(CN2CC3(CC3)c3c(CN(C)C)cc(Cn4ccnc4NC)cc3C2=O)ncc1C#N [Compound 71, 6-((5′-((dimethylamino)methyl)-7′-((2-(methylamino)-1H-imidazol-1-yl)methyl)-1′-one-1′H-spiro[cyclopropan-1,4′-isoquinoline]-2′(3′H)-yl)methyl)-4-ethoxynicotinonitrile]
< 20	–	CCOc1cc([C@H](C)N2CC3(CC3)c3c(CN4CC(N(C)C)C4)cc(Cn4ccnc4NC)cc3C2=O)ncc1F [Compound 58, (S)-5′-((3-(dimethylamino)azetidinyl-1-yl)methyl)-2′-(1-(4-ethoxy-5-fluoropyridine-2-yl)ethyl)-7′-((2-(methylamino)-1H-imidazol-1-yl)methyl)-2′,3′-dihydro-1′H-spiro[cyclopropan-1,4′-isoquinoline]-1′-one]
< 20	–	CCOc1cc([C@H](C)N2CC3(CCC3)c3c(CN4CCC(NC)CC4)cc(Cn4ccnc4NC)cc3C2=O)ncc1C#N [Compound 75, (S)-4-ethoxy-6-(1-(7′-((2-(methylamino)-1H-imidazol-1-yl)methyl)-5′-((4-(methylamino)piperidin-1-yl)methyl)-1′-one-1′H-spiro[cyclobutan-1,4′-isoquinoline]-2′(3′H)-yl)ethyl)nicotinonitrile]
< 20	–	CCOc1cc([C@H](C)N2CC3(CCC3)c3c(CN4CCC(N(C)C)CC4)cc(Cn4ccnc4NC)cc3C2=O)ncc1C#N [Compound 74]
< 20	–	CCOc1cc(CN2CC3(CC3)c3c(CN4CCN(C)CC4)cc(Cn4ccnc4NC)cc3C2=O)ncc1F [Compound 69, 2′-((4-ethoxy-5-fluoropyridine-2-yl)methyl)-7′-((2-(methylamino)-1H-imidazol-1-yl)methyl)-5′-((4-methylpiperazin-1-yl)methyl)-2′,3′-dihydro-1′H-spiro[cyclopropan-1,4′-isoquinoline]-1′-one]
< 20	–	CCOc1cc(CN2CC3(CCC3)c3c(CN(C)C)cc(Cn4ccnc4C)cc3C2=O)ncc1C#N [Compound 117, 6-((5′-((dimethylamino)methyl)-7′-((2-methyl-1H-imidazol-1-yl)methyl)-1′-oxo-1′H-spiro[cyclobutan-1,4′-isoquinoline]-2′-3′H-yl)methyl)-4-ethoxynicotinonitrile]
20 to 100	–	CNc1nccn1Cc1cc(CN(C)C)c2c(c1)C(=O)N(C(C)c1ccc(O)c(O)c1)CC21CCC1 (stereo not shown) [Compound 115, 2′-(1-(3,4-dihydroxylphenyl)ethyl)-5′-((dimethylamino)methyl)-7′-((2-(methylamino)-1H-imidazol-1-yl)methyl)-2′,3′-dihydro-1′H-spiro[cyclobutan-1,4′-isoquinoline]-1′-one]
< 20	–	CCOc1cc([C@H](C)N2CC3(CC3)c3c(CN4CCN(CC(F)(F)F)CC4)cc(Cn4ccnc4NC)cc3C2=O)ncc1F [Compound 62]
< 20	–	CCOc1cc([C@H](C)N2CC3(CCC3)c3c(CN4CCNCC4)cc(Cn4ccnc4NC)cc3C2=O)ncc1C#N [Compound 49, (S)-4-ethoxy-6-(1-(7′-((2-(methylamino)-1H-imidazol-1-yl)methyl)-1′-one-5′-(piperazin-1-ylmethyl)-1′H-spiro[cyclobutan-1,4′-isoquinoline]-2′(3′H)-yl)ethyl)nicotinonitrile]
< 20	–	CCOc1cc([C@H](C)N2CC3(CC3)c3c(CN(C)C)cc(Cn4cnc5c4CCCC5)cc3C2=O)ncc1F [Compound 114, (S)-5′-((dimethylamino)methyl)-2′-(1-(4-ethoxy-5-fluoropyridine-2-yl)ethyl)-7′-((4,5,6,7-tetrahydro-1H-benzo[d]imidazol-1-yl)methyl)-2′,3′-dihydro-1′H-spiro[cyclopropan-1,4′-isoquinoline]-1′-one]
< 20	–	CCOc1cc([C@H](C)N2CC3(CC3)c3c(CN4CCN(CCC(F)(F)F)CC4)cc(Cn4ccnc4NC)cc3C2=O)ncc1F [Compound 65]
< 20	–	CCOc1cccc2c1CCC2N1CC2(CCC2)c2c(CN(C)C)cc(Cn3ccnc3NC)cc2C1=O (stereo not shown) [Compound 113, 5′-((dimethylamino)methyl)-2′-(4-ethoxy-2,3-dihydro-1H-indene-1-yl)-7′-((2-(methylamino)-1H-imidazol-1-yl)methyl)-2′,3′-dihydro-1′H-spiro[cyclobutan-1,4′-isoquinoline]-1′-one]
20 to 100	–	CCOc1cc(C(C)N2CC3(CCC3)c3c(CN(C)C)cc(Cn4ccc5ncccc54)cc3C2=O)ncc1C#N (stereo not shown) [Compound 108, 6-(1-(7′-((1Hpyrrol[3,2-b]pyridine-1-yl)methyl)-5′-((dimethylamino)methyl)-1′-oxo-1′H-spiro[cyclobutan-1,4′-isoquinoline]-2′(3′H)-yl)ethyl)-4-ethoxynicotinonitrile]
< 20	–	CCOc1cc([C@H](C)N2CC3(CC3)c3c(CN4CCCCC4)cc(Cn4ccnc4NC)cc3C2=O)ncc1F [Compound 7]
< 20	–	CCOc1cc([C@H](C)N2C[C@@]3(CC3(F)F)c3c(CN(C)C)cc(Cn4ccnc4NC)cc3C2=O)ncc1F (stereo in doubt) [Compound 97, (R)-5′-((dimethylamino)methyl)-2′-((S)-1-(4-ethoxy-5-fluoropyridine-2-yl)ethyl)-2,2-difluoro-7′-((2-(methylamino)-1H imidazol-1-yl)methyl)-2′, 3′-dihydro-1′H-spiro[cyclopropan-1,4′-isoquinoline]-1′-one]
< 20	–	CCOc1cc([C@@H](C)N2C[C@@]3(CC3(F)F)c3c(CN(C)C)cc(Cn4ccnc4NC)cc3C2=O)ncc1F [Compound 90, (R)-5′-((dimethylamino)methyl)-2′-((R)-1-(4-ethoxy-5-fluoropyridine-2-yl)ethyl)-2,2-difluoro-7′-((2-(methylamino)-1H imidazol-1-yl)methyl)-2′, 3′-dihydro-1′H-spiro[cyclopropan-1,4′-isoquinoline]-1′-one]
< 20	–	CCOc1cc([C@H](C)N2CC3(CCC3)c3c(CN4CCN(C(C)=O)CC4)cc(Cn4ccnc4NC)cc3C2=O)ncc1F [Compound 86, (S)-5′-((4-acetylpiperazin-1-yl)methyl)-2′-(1-(4-ethoxy-5-fluoropyridine-2-yl)ethyl)-7′-((2-(methylamino)-1H-imidazol-1-yl)methyl)-2′,3′-dihydro-1′H-spiro[cyclobutyl-1,4′-isoquinoline]-1′-one]
< 20	–	CCOc1cc([C@H](C)N2CC3(CC3)c3c(CN(C)CC#N)cc(Cn4ccnc4NC)cc3C2=O)ncc1F [Compound 43]
< 20	–	CCOc1cc([C@H](C)N2CC3(CC3)c3c(C(=O)N(C)C)cc(Cn4ccnc4NC)cc3C2=O)ncc1F [Compound 110]
20 to 100	–	CCOc1cc(C(C)N2CC3(CCC3)c3c(CN4CC5(CNC5)C4)cc(Cn4ccnc4NC)cc3C2=O)ncc1C#N (stereo not shown) [Compound 102]
20 to 100	–	CCOc1cc(CN2CC3(CC3)c3c(CN(C)C)cc(Cn4ccnc4NC)cc3C2=O)ncc1F [Compound 76, 5′-((dimethylamino)methyl)-2′-((4-ethoxy-5-fluoropyridine-2-yl)methyl)-7′-((2-(methylamino)-1H-imidazol-1-yl)methyl)-2′,3′-dihydro-1′H-spiro[cyclopropan-1,4′-isoquinoline]-1′-one]
